# Laboratory results published in patent US7872004B2, “6-(heterocyclyl-substituted benzyl)-4-oxoquinoline compound and use thereof as HIV integrase inhibitor” (Japan Tobacco Inc., priority 2006, dated 2011).
# Target: T1, HIV integrase (Human immunodeficiency virus type 1 group M subtype B, UniProt P12497, F1332H)
# T1 construct: HIV integrase full length gene; made in house; host or cells: Escherichia coli BL21(DE3)
# Test: Determination of enzyme (HIV integrase) inhibitory activity
# Assay type: biochemical, HIV (Human Immunodeficiency Virus (type 1))
# Conditions: recombinant integrase protein (F185H), strand transfer plate assay, absorbance at 450 nm
# Excerpt: The following explains evaluation methods of the HIV integrase inhibitory activity of the compound of the present invention.
# (i) Construction of Recombinant Integrase Gene Expression System
# HIV integrase full length gene (J. Virol., 67, 425-437 (1993)) in which phenylalanine at codon 185 was substituted by histidine, was inserted between the restriction enzyme NdeI and XhoI sites of plasmid pET21a(+) (Novagen), whereby an integrase expression vector pET21a-IN-F185H was constructed.
# (ii) Production and Purification of Integrase Protein
# Escherichia coli recombinant BL21(DE3) transformed with plasmid pET21a-IN-F185H obtained in (i) was shake cultured at 30° C. in a liquid medium containing ampicillin. When the culture reached the logarithmic growth phase, isopropyl-β-D-thiogalactopyranoside was added to promote expression of integrase gene. The culture was continued for 3 hr to promote accumulation of the integrase protein. The recombinant E. coli was collected in pellets by centrifugal separation and preserved at −80° C.
# The E. coli was suspended in Lysis buffer ([…] HEPES (pH 7.5), 5 mM DTT, 10 mM CHAPS, 10% glycerol) containing 1M sodium chloride and subjected to repeat pressurization and depressurization for rupture, and centrifugal separation at 4° C., 40,000×g, 60 min to recover a water-soluble fraction (supernatant). This was diluted 10-fold with Lysis buffer free of sodium chloride, mixed with SP-Sepharose (GE healthcare Bioscience) and stirred at 4° C. for 60 min to allow adsorption of integrase protein to the resin. The resin was washed with Lysis buffer containing 100 mM sodium chloride and the integrase protein was eluted with Lysis buffer containing 1M sodium chloride.
# The eluted integrase protein solution was subjected to a Superdex 75 (GE healthcare Bioscience) column for gel filtration. The protein was eluted with Lysis buffer containing 1M sodium chloride.
# The obtained fractions of the integrase protein were collected and preserved at −80° C.
# (iii) Preparation of DNA Solution
# The following DNA synthesized by Greiner or FASMAC was dissolved in TE buffer (10 mM Tris-hydrochloric acid (pH 8.0), 1 mM EDTA) and mixed with donor DNA, target DNA, and each complementary strand (+ and − strands) to 1 μM. The mixture was heated at 95° C. for 5 min, 80° C. for 10 min, 70° C. for 10 min, 60° C. for 10 min, 50° C. for 10 min and 40° C. for 10 min and kept at 25° C. to give a double stranded DNA, which was used for the test.
# (iv) Determination of Enzyme (HIV Integrase) Inhibitory Activity
# The donor DNA was diluted with TE buffer to 10 nM (or 5 nM), of which 50 μl was added to each well of streptavidin-coated microtiter plate (Roche) and allowed to adsorb at 37° C. for 60 min. The plate was washed with phosphate buffer (Dulbecco's PBS, Sanko Junyaku Co., Ltd.) containing 0.1% Tween 20 and phosphate buffer. Then, an enzyme reaction mixture (70 μl), a test substance (10 μl) diluted with the enzyme reaction mixture and 100 μg/ml (or 64 μg/ml (2 μM)) integrase protein (10 μl) were added to each well and reacted at 37° C. for 60 min.
# Composition of the enzyme reaction mixture: 30 mM MOPS (3-morpholinopropanesulfonic acid), 5 mM magnesium chloride, 3 mM DTT (dithiothreitol), 0.1 mg/ml BSA (bovine serum albumin), 5% glycerol, 10% DMSO (dimethyl sulfoxide), 0.01% Tween 20.
# Then, 50 nM (or 25 nM) target DNA (10 μl) was added, reacted at 37° C. for 10 min and washed with phosphate buffer containing 0.1% Tween 20 to stop the reaction.
# Then, 100 mU/ml peroxidase labeled anti-digoxigenin antibody solution (Roche, 100 μl) was added, and the mixture was reacted at 37° C. for 60 min, followed by washing with phosphate buffer containing 0.1% Tween 20.
# A peroxidase color solution (Bio Rad, 100 μl) was added and allowed to react at room temperature for 4 min (or 3 min). The color reaction was stopped by adding IN sulfuric acid (100 μl). The absorbance at 450 nm was measured. […]
row,Structure (SMILES),IC50 [nM]
1,"COc1cc2c(cc1Cc1cc(N3CCOCC3)cc(Cl)c1F)c(=O)c(C(=O)O)cn2[C@H](CO)C(C)(C)OC [Example 42, 6-[3-chloro-2-fluoro-5-(morpholin-4-yl)benzyl]-1-((R)-1-hydroxymethyl-2-methoxy-2-methylpropyl)-7-methoxy-4-oxo-1,4-dihydroquinoline-3-carboxylic acid]",< 10
2,"CCc1cc2c(cc1Cc1cc(N3CCOCC3)cc(Cl)c1F)c(=O)c(C(=O)O)cn2[C@H](CO)C(C)(C)OC [Example 43, 6-[3-chloro-2-fluoro-5-(morpholin-4-yl)benzyl]-7-ethyl-1-((R)-1-hydroxymethyl-2-methoxy-2-methylpropyl)-4-oxo-1,4-dihydroquinoline-3-carboxylic acid]",< 10
3,"CCc1cc2c(cc1Cc1cc(N3CCOCC3)cc(Cl)c1F)c(=O)c(C(=O)O)cn2[C@H](CO)CCOC [Example 44, 6-[3-chloro-2-fluoro-5-(morpholin-4-yl)benzyl]-7-ethyl-1-((S)-1-hydroxymethyl-3-methoxypropyl)-4-oxo-1,4-dihydroquinoline-3-carboxylic acid]",10 to 100
4,"COc1cc2c(cc1Cc1cc(N3CCCC3=O)cc(Cl)c1F)c(=O)c(C(=O)O)cn2[C@H](CO)C(C)(C)C [Example 45, 6-[3-chloro-2-fluoro-5-(2-oxopyrrolidin-1-yl)benzyl]-1-((S)-1-hydroxymethyl-2,2-dimethylpropyl)-7-methoxy-4-oxo-1,4-dihydroquinoline-3-carboxylic acid]",< 10
5,"COc1cc2c(cc1Cc1cc(N3CCCC3=O)c(F)c(Cl)c1F)c(=O)c(C(=O)O)cn2[C@H](CO)C(C)(C)C [Example 46, 6-[3-chloro-2,4-difluoro-5-(2-oxopyrrolidin-1-yl)benzyl]-1-((S)-1-hydroxymethyl-2,2-dimethylpropyl)-7-methoxy-4-oxo-1,4-dihydroquinoline-3-carboxylic acid]",< 10
6,"COCC[C@@H](CO)n1cc(C(=O)O)c(=O)c2cc(Cc3cc(N4CCCC4=O)cc(Cl)c3F)c(OC)cc21 [Example 47, 6-[3-chloro-2-fluoro-5-(2-oxopyrrolidin-1-yl)benzyl]-1-((S)-1-hydroxymethyl-3-methoxypropyl)-7-methoxy-4-oxo-1,4-dihydroquinoline-3-carboxylic acid]",10 to 100
7,"COc1cc2c(cc1Cc1cc(N3CCCC3=O)cc(Cl)c1F)c(=O)c(C(=O)O)cn2[C@H](CO)[C@@H](C)OC [Example 48, 6-[3-chloro-2-fluoro-5-(2-oxopyrrolidin-1-yl)benzyl]-1-((1R,2R)-1-hydroxymethyl-2-methoxypropyl)-7-methoxy-4-oxo-1,4-dihydroquinoline-3-carboxylic acid]",< 10
8,"COc1cc2c(cc1Cc1cc(N3CCOCC3)c(F)c(Cl)c1F)c(=O)c(C(=O)O)cn2[C@H](CO)C(C)(C)C [Example 49, 6-[3-chloro-2,4-difluoro-5-(morpholin-4-yl)benzyl]-1-((S)-1-hydroxymethyl-2,2-dimethylpropyl)-7-methoxy-4-oxo-1,4-dihydroquinoline-3-carboxylic acid]",< 10
9,"CCO[C@H](C)[C@@H](CO)n1cc(C(=O)O)c(=O)c2cc(Cc3cc(N4CCOCC4)cc(Cl)c3F)c(OC)cc21 [Example 50, 6-[3-chloro-2-fluoro-5-(morpholin-4-yl)benzyl]-1-[(1R,2R)-2-ethoxy-1-(hydroxymethyl)propyl]-7-methoxy-4-oxo-1,4-dihydroquinoline-3-carboxylic acid]",10 to 100
10,"CC(C)(C)[C@@H](CO)n1cc(C(=O)O)c(=O)c2cc(Cc3cc(N4CCCC4=O)cc(Cl)c3F)ccc21 [Example 51, 6-[3-chloro-2-fluoro-5-(2-oxopyrrolidin-1-yl)benzyl]-1-((S)-1-hydroxymethyl-2,2-dimethylpropyl)-4-oxo-1,4-dihydroquinoline-3-carboxylic acid]",< 10
11,"CCc1cc2c(cc1Cc1cc(N3CCCC3=O)cc(Cl)c1F)c(=O)c(C(=O)O)cn2[C@H](CO)C(C)(C)C [Example 52, 6-[3-chloro-2-fluoro-5-(2-oxopyrrolidin-1-yl)benzyl]-7-ethyl-1-((S)-1-hydroxymethyl-2,2-dimethylpropyl)-4-oxo-1,4-dihydroquinoline-3-carboxylic acid]",10 to 100
12,"CC(C)(C)[C@@H](CO)n1cc(C(=O)O)c(=O)c2cc(Cc3cc(N4CCOCC4)cc(Cl)c3F)ccc21 [Example 53, 6-[3-chloro-2-fluoro-5-(morpholin-4-yl)benzyl]-1-((S)-1-hydroxymethyl-2,2-dimethylpropyl)-4-oxo-1,4-dihydroquinoline-3-carboxylic acid]",< 10
13,"CC(C)(C)[C@@H](CO)n1cc(C(=O)O)c(=O)c2cc(Cc3cc(N4CCCC4=O)c(F)c(Cl)c3F)ccc21 [Example 54, 6-[3-chloro-2,4-difluoro-5-(2-oxopyrrolidin-1-yl)benzyl]-1-((S)-1-hydroxymethyl-2,2-dimethylpropyl)-4-oxo-1,4-dihydroquinoline-3-carboxylic acid]",< 10
14,"CCc1cc2c(cc1Cc1cc(N3CCCC3=O)c(F)c(Cl)c1F)c(=O)c(C(=O)O)cn2[C@H](CO)C(C)(C)C [Example 55, 6-[3-chloro-2,4-difluoro-5-(2-oxopyrrolidin-1-yl)benzyl]-7-ethyl-1-((S)-1-hydroxymethyl-2,2-dimethylpropyl)-4-oxo-1,4-dihydroquinoline-3-carboxylic acid]",10 to 100
15,"CC(C)(C)[C@@H](CO)n1cc(C(=O)O)c(=O)c2cc(Cc3cc(N4CCOCC4)c(F)c(Cl)c3F)ccc21 [Example 56, 6-[3-chloro-2,4-difluoro-5-(morpholin-4-yl)benzyl]-1-((S)-1-hydroxymethyl-2,2-dimethylpropyl)-4-oxo-1,4-dihydroquinoline-3-carboxylic acid]",< 10
16,"COc1cc2c(cc1Cc1cc(-c3noc(C)n3)cc(Cl)c1F)c(=O)c(C(=O)O)cn2[C@H](CO)C(C)C [Example 57, 6-[3-chloro-2-fluoro-5-(5-methyl-1,2,4-oxadiazol-3-yl)benzyl]-1-((S)-1-hydroxymethyl-2-methylpropyl)-7-methoxy-4-oxo-1,4-dihydroquinoline-3-carboxylic acid]",< 10
17,"CC(C)(C)[C@H](CO)n1cc(C(=O)O)c(=O)c2cc(Cc3cc(N4CCOCC4)c(F)c(Cl)c3F)ccc21 [Example 59, 6-[3-chloro-2,4-difluoro-5-(morpholin-4-yl)benzyl]-1-((R)-1-hydroxymethyl-2,2-dimethylpropyl)-4-oxo-1,4-dihydroquinoline-3-carboxylic acid]",10 to 100
